Measurements taken from US9458172B2, “Pyridinyl and pyrimidinyl sulfoxide and sulfone derivatives” (priority 2012, dated 2016).
Where two headings read alike, the source gives them in different places.

Tests used:
NAMPT = NAMPT (Homo sapiens (Human), UniProt P43490); assay: Biochemical Inhibition Assay (NAMPT enzymatic reaction, NMN quantified by mass spectrometry); conditions: 33 nM recombinant His-tagged NAMPT, 1 μM NAM, 30 min at rt
Procedure: Assay 1: Biochemical Inhibition Assay
NAMPT protein purification. Recombinant His-tagged NAMPT was produced in E. coli cells, purified over a Ni column, and further purified over a size-exclusion column by XTAL Biostructures.
The NAMPT Enzymatic Reaction. The NAMPT enzymatic reactions were carried out in Buffer A (50 mM Hepes pH 7.5, 50 mM NaCl, 5 mM MgCl2, and 1 mM THP) in 96-well V-bottom plates. The compound titrations were performed in a separate dilution plate by serially diluting the compounds in DMSO to make a 100× stock. […] The compound and enzyme mixture was incubated for 15 min at rt, then 10 μL of 10× substrate and co-factors in Buffer A were added to the test well to make a final concentration of 1 μM NAM, […] 5-Phospho-D-ribose 1-diphosphate (PRPP), and 2.5 mM Adenosine 5′-triphosphate (ATP). The reaction was allowed to proceed for 30 min at rt, then was quenched with the addition of 11 μL of a solution of formic acid and L-Cystathionine to make a final concentration of 1% formic acid and 10 μM L-Cystathionine. Background and signal strength was determined by addition (or non-addition) of a serial dilution of NMN to a pre-quenched enzyme and cofactor mix.
Quantification of NMN. A mass spectrometry-based assay was used to measure the NAMPT reaction product, β-nicotinamide mononucleotide (NMN), and the internal control (L-Cystathionine). NMN and L-Cystathionine were detected using the services of Biocius Lifesciences with the RapidFire system. In short, the NMN and L-Cystathionine were bound to a graphitic carbon cartridge in 0.1% formic acid, eluted in 30% acetonitrile buffer, and injected into a Sciex 4000 mass spectrometer. The components of the sample were ionized with electrospray ionization and the positive ions were detected. […] The fragments are quantified and the analyzed by the following method.
Determination of IC50 Values. First, the NMN signal was normalized to the L-Cystathionine signal by dividing the NMN signal by the L-Cystathionine signal for each well. The signal from the background wells were averaged and subtracted from the test plates.

A2780 cells = assay: In-Vitro Cell Proliferation Assay (SRB)
[1] = Homo sapiens, A2780, 72 h, read-out: Cell Proliferation (IC50)
[2] = Homo sapiens, A2780, 72 h, read-out: Cell Proliferation (IC50), A2780 cells, 72 h, sulforhodamine B
[3] = read-out: Cell Proliferation (IC50), A2780 cells, 72 h, sulforhodamine B

NAMPT, sequence (P43490 whole entry): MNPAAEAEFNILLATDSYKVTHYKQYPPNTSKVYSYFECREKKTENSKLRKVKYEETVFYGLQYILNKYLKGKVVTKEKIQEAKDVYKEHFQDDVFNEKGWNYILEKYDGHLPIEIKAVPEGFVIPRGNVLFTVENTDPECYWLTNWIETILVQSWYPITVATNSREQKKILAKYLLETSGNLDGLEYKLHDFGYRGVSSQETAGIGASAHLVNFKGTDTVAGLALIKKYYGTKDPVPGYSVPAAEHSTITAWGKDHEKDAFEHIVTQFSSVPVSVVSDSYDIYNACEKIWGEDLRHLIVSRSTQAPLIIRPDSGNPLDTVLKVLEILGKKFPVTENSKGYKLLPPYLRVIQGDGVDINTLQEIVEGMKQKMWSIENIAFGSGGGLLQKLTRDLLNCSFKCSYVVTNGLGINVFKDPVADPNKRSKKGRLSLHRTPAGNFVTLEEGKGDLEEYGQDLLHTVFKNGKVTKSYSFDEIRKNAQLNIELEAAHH

Structure (SMILES)	IC50 (NAMPT)	IC50 (A2780 cells; [1])	IC50 (A2780 cells; [2])	IC50 (A2780 cells; [3])
O=C(NCc1ccc([S+]([O-])c2cccc(OC(F)(F)F)c2)cn1)c1cc2ccncc2o1 (racemic) [Example 90, Furo[2,3-c]pyridine-2-carboxylic acid [5-(3-trifluoromethoxy-benzenesulfinyl)-pyridin-2-ylmethyl]-amide (racemic)]	16.2 nM	25.5 nM	–	–
O=C(NCc1ccc([S+]([O-])c2cccc(OC(F)(F)F)c2)cn1)c1ccc2nccn2c1 (racemic) [Example 101, Imidazo[1,2-a]pyridine-6-carboxylic acid [5-(3-trifluoromethoxy-benzenesulfinyl)-pyridin-2-ylmethyl]-amide (racemic)]	31.5 nM	–	40.2 nM	–
CC(C)CN1CCC([S+]([O-])c2ccc(CNC(=O)c3cc4ccncc4o3)nc2)CC1 (racemic) [Example 102, Furo[2,3-c]pyridine-2-carboxylic acid [5-(1-isobutyl-piperidine-4-sulfinyl)-pyridin-2-ylmethyl]-amide (racemic)]	69.3 nM	25.6 nM	–	–
O=C(NCc1ccc([S+]([O-])c2cc(F)cc(F)c2)cn1)N1Cc2ccncc2C1 (single isomer, unassigned; enantiomer 1) [Example 159, N-[[5-(3,5-difluorophenyl)sulfinyl-2-pyridyl]methyl]-1,3-dihydropyrrolo[3,4-c]pyridine-2-carboxamide (enantiomer 1)]	635 nM	–	–	2000 nM
O=C(NCc1ccc([S+]([O-])c2cc(F)cc(F)c2)cn1)N1Cc2ccncc2C1 (single isomer, unassigned; enantiomer 2) [Example 160, N-[[5-(3,5-difluorophenyl)sulfinyl-2-pyridyl]methyl]-1,3-dihydropyrrolo[3,4-c]pyridine-2-carboxamide (enantiomer 2)]	20.1 nM	–	–	19.6 nM
O=C(NCc1ccc(S(=O)(=O)c2cc(F)cc(F)c2)cn1)c1cnc2[nH]ncc2c1 [Example 1, 1H-Pyrazolo[3,4-b]pyridine-5-carboxylic acid [5-(3,5-difluoro-benzenesulfonyl)-pyridin-2-ylmethyl]-amide]	56.3 nM	91 nM	–	–
O=C(NCc1ccc(S(=O)(=O)c2cc(F)cc(F)c2)cn1)c1cnc2nccn2c1 [Example 2, Imidazo[1,2-a]pyrimidine-6-carboxylic acid [5-(3,5-difluoro-benzenesulfonyl)-pyridin-2-ylmethyl]-amide]	6.5 nM	52.6 nM	–	–
O=C(NCc1ccc(S(=O)(=O)c2cc(F)cc(F)c2)cn1)c1ccc2nccn2c1 [Example 4, Imidazo[1,2-a]pyridine-6-carboxylic acid [5-(3,5-difluoro-benzenesulfonyl)-pyridin-2-ylmethyl]-amide]	7.1 nM	9.2 nM	–	–
O=C(NCc1ncc(S(=O)(=O)c2ccccc2)cn1)c1cnc2[nH]ncc2c1 [Example 6, 1H-Pyrazolo[3,4-b]pyridine-5-carboxylic acid (5-benzenesulfonyl-pyrimidin-2-ylmethyl)-amide]	108 nM	–	2000 nM	–
O=C(NCc1ncc(S(=O)(=O)c2ccccc2)cn1)c1cc2cnccc2[nH]1 [Example 7, 1H-Pyrrolo[3,2-c]pyridine-2-carboxylic acid (5-benzenesulfonyl-pyrimidin-2-ylmethyl)-amide]	150 nM	131 nM	–	–
O=C(NCc1ncc(S(=O)(=O)c2ccccc2)cn1)c1ccc2nccn2c1 [Example 8, Imidazo[1,2-a]pyridine-6-carboxylic acid (5-benzenesulfonyl-pyrimidin-2-ylmethyl)-amide]	352 nM	–	459 nM	–
O=C(NCc1ccc(S(=O)(=O)c2cccc(C(F)(F)F)c2)cn1)c1ccc2nccn2c1 [Example 10, Imidazo[1,2-a]pyridine-6-carboxylic acid [5-(3-trifluoromethyl-benzenesulfonyl)-pyridin-2-ylmethyl]-amide]	12.7 nM	–	8.3 nM	–
O=C(NCc1ncc(S(=O)(=O)c2ccccc2)cn1)c1cnc2nccn2c1 [Example 12, Imidazo[1,2-a]pyrimidine-6-carboxylic acid (5-benzenesulfonyl-pyrimidin-2-ylmethyl)-amide]	19.1 nM	828 nM	–	–
O=C(NCc1ccc(S(=O)(=O)c2cccc(OC(F)(F)F)c2)cn1)c1ccc2nccn2c1 [Example 13, Imidazo[1,2-a]pyridine-6-carboxylic acid [5-(3-trifluoromethoxy-benzenesulfonyl)-pyridin-2-ylmethyl]-amide]	8.5 nM	13.6 nM	–	–
O=C(NCc1ccc(S(=O)(=O)c2cccc(C(F)(F)F)c2)cn1)c1cnc2[nH]ncc2c1 [Example 16, 1H-Pyrazolo[3,4-b]pyridine-5-carboxylic acid [5-(3-trifluoromethyl-benzenesulfonyl)-pyridin-2-ylmethyl]-amide]	39.4 nM	16.3 nM	–	–
O=C(NCc1ccc(S(=O)(=O)c2cccc(C(F)(F)F)c2)cn1)c1cc2cnccc2[nH]1 [Example 17, 1H-Pyrrolo[3,2-c]pyridine-2-carboxylic acid [5-(3-trifluoromethyl-benzenesulfonyl)-pyridin-2-ylmethyl]-amide]	19.1 nM	9.1 nM	–	–
O=C(NCc1ccc(S(=O)(=O)c2cccc(C(F)(F)F)c2)cn1)c1cnc2nccn2c1 [Example 18, Imidazo[1,2-a]pyrimidine-6-carboxylic acid (5-(3-trifluoromethyl-benzenesulfonyl)-pyridin-2-ylmethyl]-amide]	4.7 nM	11.7 nM	–	–
O=C(NCc1ccc(S(=O)(=O)c2cccc(OC(F)(F)F)c2)cn1)c1cnc2nccn2c1 [Example 20, Imidazo[1,2-a]pyrimidine-6-carboxylic acid [5-(3-trifluoromethoxy-benzenesulfonyl)-pyridin-2-ylmethyl]-amide]	3.4 nM	11.4 nM	–	–
O=C(NCc1ccc(S(=O)(=O)c2cccc(OC(F)(F)F)c2)cn1)c1cc2ccncc2o1 [Example 23, Furo[2,3-c]pyridine-2-carboxylic acid [5-(3-trifluoromethoxy-benzenesulfonyl)-pyridin-2-ylmethyl)-amide]	6.1 nM	10.8 nM	–	–
O=C(NCc1ccc(S(=O)(=O)C2CCNCC2)cn1)c1cc2ccncc2o1 [Example 26, Furo[2,3-c]pyridine-2-carboxylic acid [5-(piperidine-4-sulfonyl)-pyridin-2-ylmethyl]-amide]	204 nM	2000 nM	–	–
O=C(NCc1ccc(S(=O)(=O)C2CCNCC2)cn1)c1ccc2nccn2c1 [Example 27, Imidazo[1,2-a]pyridine-6-carboxylic acid [5-(piperidine-4-sulfonyl)-pyridin-2-ylmethyl]-amide]	572 nM	930 nM	–	–
O=C(NCc1ccc(S(=O)(=O)c2ccc(N3CCOCC3)cc2)cn1)c1ccc2nccn2c1 [Example 30, Imidazo[1,2-a]pyridine-6-carboxylic acid (5-(4-morpholin-4-yl-benzenesulfonyl)-pyridin-2-ylmethyl]-amide]	7.2 nM	–	1.6 nM	–
O=C(NCc1ccc(S(=O)(=O)c2ccc(N3CCOCC3)cc2)cn1)c1cnc2[nH]ncc2c1 [Example 31, 1H-Pyrazolo[3,4-b]pyridine-5-carboxylic acid [5-(4-morpholin-4-yl-benzenesulfonyl)-pyridin-2-ylmethyl]-amide]	19.3 nM	7.3 nM	–	–
COc1cccc(S(=O)(=O)c2ccc(CNC(=O)c3cc4ccncc4o3)nc2)c1 [Example 32]	6.1 nM	9.1 nM	–	–
COc1cccc(S(=O)(=O)c2ccc(CNC(=O)c3cnc4nccn4c3)nc2)c1 [Example 33, Imidazo[1,2-a]pyrimidine-6-carboxylic acid [5-(3-methoxy-benzenesulfonyl)-pyridin-2-ylmethyl]-amide]	4.6 nM	28.6 nM	–	–
COc1cccc(S(=O)(=O)c2ccc(CNC(=O)c3cnc4[nH]ncc4c3)nc2)c1 [Example 34, 1H-Pyrazolo[3,4-b]pyridine-5-carboxylic acid [5-(3-methoxy-benzenesulfonyl)-pyridin-2-ylmethyl]-amide]	59.9 nM	104 nM	–	–
O=C(NCc1ccc(S(=O)(=O)c2ccc(N3CCOCC3)nc2)cn1)c1ccc2nccn2c1 [Example 35, Imidazo[1,2-a]pyridine-6-carboxylic acid [5-(6-morpholin-4-yl-pyridine-3-sulfonyl)-pyridin-2-ylmethyl]-amide]	8.6 nM	2 nM	–	–
